The results in this text go back to patent publication US10000469B2, “Heat shock protein 70 (hsp-70) receptor ligands” (Duke University, priority 2014, dated 2018).

Structures are written as SMILES.

This assay has as its system PC12 cell line expressing httQ74-GFP. Put plainly: Aggregation assay, cell culture model of Huntington's disease. Particulars: compared to untreated controls. Type of assay: cell-based, rat. Here is the method: Aggregation Assay: The PC12 rat neuronal cell line, which expresses Huntingtin exon 1 containing 74 glutamine repeats is fused to GFP and under the control of a doxycycline promoter was used [Wyttenbach et al. (2001). Polyglutamine expansions cause decreased CRE-mediated transcription and early gene expression changes prior to cell death in an inducible cell model of Huntington's disease. Human molecular genetics 10, 1829-1845]. Cells were treated with HS-72 for 18 hours prior to a doxycycline addition for 48 hours. The soluble and pellet fraction were then separated by centrifugation at 14,000 rpm for 15 minutes and both fractions were assayed for httQ-GFP by solubilizing with SDS followed by western blotting with antibodies against GFP.

Turning to `CCCn1c(NC(=O)[C@H]2CCCN(c3cnccn3)C2)nc2ccccc21` [HS-72, (S)—N-(1-propyl-1H-benzo[d]imidazol-2-yl)-1-(pyrazin-2-yl)piperidine-3-carboxamide], the “increase of HttQ-GFP in the insoluble associated pellet fraction” value stood at 50%.
